Source: ChEMBL document CHEMBL3217442, “Synthesis and bioevaluation of aryl hydroxamates distinguishing between NAD+ and ATP-dependent DNA ligases” (Medchemcomm, 2012)
Values after ≈ are worked out from the molar mass of the structure shown. Active and inactive are the calls of the source. No cut-off for these calls is given here.

Tests used:
Escherichia coli [1] = assay: microbe, parasite or virus in culture; type: functional; conditions: GR501, 20 h
Escherichia coli [2] = system: Escherichia coli
Escherichia coli [3] = assay: microbe, parasite or virus in culture; type: functional; conditions: GR501, 20 h; remark: listed apart in the source

Structure (SMILES) | MIC (Escherichia coli [1]) [µg/mL] | MIC (Escherichia coli [2]) | MIC (Escherichia coli [3]) [µg/mL]
C=CCOc1ccc(OCc2ccc(Br)cc2)cc1C(=O)NO | 800 (≈ 2120 µM) | – | –
O=C(NO)c1ccc2ccccc2c1OCc1cccc(Cl)c1 | – | inactive | –
C#CCOc1ccc(OCC=C)c(C(=O)NO)c1 | 400 (≈ 1620 µM) | – | –
C=CCOc1ccccc1C(=O)NO | 10 (≈ 51.8 µM) | – | 0.5 (≈ 2.59 µM)
C=CCOc1c(OCc2ccccc2)cccc1C(=O)NO | – | inactive | –
CCCCCCOc1c(C(=O)NO)ccc2ccccc12 | > 200 | – | –
C=CCOc1ccc(OCC=C)c(C(=O)NO)c1 | 150 (≈ 602 µM) | – | –
O=C(NO)c1ccc2ccccc2c1OCc1ccc(Cl)c(Cl)c1 | > 200 | – | –
O=C(NO)c1ccccc1OCc1cccc(Cl)c1 | – | inactive | –
C=CCOc1cc(OCc2cc(Cl)ccc2Cl)ccc1C(=O)NO | – | inactive | –
C=CCOc1ccc(OCc2cc(Cl)ccc2Cl)cc1C(=O)NO | 400 (≈ 1090 µM) | – | –
O=C(NO)c1ccccc1OCC(O)Cn1cc(-c2ccccc2)nn1 (centres undefined) | 18 (≈ 50.8 µM) | – | 1 (≈ 2.82 µM)
C=CCOc1cc(OCc2ccc(Br)cc2)ccc1C(=O)NO | 800 (≈ 2120 µM) | – | –
O=C(NO)c1ccccc1OCc1ccc(Cl)c(Cl)c1 | – | inactive | –
C=CCOc1ccc(C(=O)NO)c(OCC=C)c1 | 400 (≈ 1600 µM) | – | –
C=CCOc1ccc(OCc2ccccc2)cc1C(=O)NO | 800 (≈ 2670 µM) | – | –
C=CCOc1cccc(C(=O)NO)c1OCC=C | – | inactive | –
